Patent publication US6740505B1, “Production of proteins” (SmithKline Beecham Corporation, priority 1998, dated 2004)

Tests used:
[1] = system: recombinant murine NS0 cells transfected with a IgG1 humanised anti-CD23 antibody; experiment: Viable cell count (Erythrosin B exclusion, haemocytometer) in repeated batch NS0 cell culture; type: cell-based; conditions: 0.075 mM butyrate
Experimental: (§1) Five Erlenmeyer flasks were inoculated with recombinant murine NS0 cells transfected with a IgG1 humanised anti-CD23 antibody (produced according to the method of Bebbington et al, as supra) in a cholesterol containing protein free/glutamine free medium at 0.2×10^6 cells/ml. Sodium butyrate (0.5M) in PBS was added to the flasks at the following concentrations: 0 mM; 0.025 mM; 0.05 mM; 0.075 mM and 0.10 mM and were incubated at […] and 100 rpm in a shake incubator for 4 days. Subsequently, the flasks were subcultured every four days to a start count of […], maintaining sodium butyrate concentrations as above in each flask. The flasks were sampled and assayed before each subculture. The culture was continued in this ‘draw-fill’/‘repeated batch’ manner for 56 days, maintaining sodium butyrate concentrations at the concentrations indicated throughout. Viable cells were counted for each sample taken as outlined below. Antibody titre for each sample taken was determined as outlined below.
Culture was diluted as necessary in culture medium. It was examined microscopically in a haemocytometer (Neubauer counting chamber) using Erythrosin B (Sigma) 0.04% w/v in PBS, pH 7 as an exclusion dye. The number of viable and non-viable cells per milliliter and the percentage viability of the culture was calculated.

[2] = system: recombinant murine NS0 cells transfected with a IgG1 humanised anti-CD23 antibody; experiment: Antibody titre (Human IgG by nephelometric method) in repeated batch NS0 cell culture; type: cell-based; conditions: 56 day culture
Experimental: as §1
The quantity of Human IgG was determined by a Nephelometric method (Tanford, C. (1961) Light Scattering. Physical Chemistry of Macromolecules. New York:Wiley, 275-316; Whicher J. T et al (1978), “An evaulation of Hyland laser nephelometer PDQ system for the measurement of immunoglobulins”; Ann.Clin.Biochem. 15, p77-85), whereby the formation of insoluble immune-precipitin of Human IgG with highly specific antibody to Human IgG was measured. The Nephelometer measured the intensity of the light scattered by the insoluble immune-precipitin in reaction solution. The change in intensity of the scattered light signal is proportional to the concentration of Human IgG in tested sample. The quantity of Human IgG in the sample is measured from a standard curve constructed from known concentration of purified Human IgG versus the rate of light scatter signal.

Structure (SMILES): CCCC(=O)[O-].[Na+] [Butyrate, sodium butyrate]
- decrease in viable cell count compared to control ([1]; by 56 day): narrowed considerably
- viable cell count compared to control ([1]; early stages of the culturing process): slight decrease in viable cell count
- antibody titre over control ([2]; 0.075 mM butyrate maintained in medium): marked increase in antibody titre over control
- antibody titre over control ([2]; 0.075 mM butyrate maintained in medium, listed as butyrate): marked increase over control
- consistency of protein production during the culturing process ([2]; 0.075 mM butyrate): more consistent production
- antibody titre over control ([2]; 0.1 mM butyrate maintained in medium): marked increase in antibody titre over control
- consistency of protein production during the culturing process ([2]; 0.1 mM butyrate): erratic protein production
